Patent publication US11180474B2 (BRISTOL-MYERS SQUIBB COMPANY, priority 2016, dated 2021)

Columns and labels:
human TLR9 = target: T1, human TLR9 (Homo sapiens, UniProt Q9NR96); experiment: TLR9 inhibition reporter assay (HEK-Blue cells, SEAP reporter, ODN2006 stimulation); assay type: cell-based; conditions: HEK-Blue cells overexpressing human TLR9, ODN2006 5 nM
T1 construct: host or cells: HEK-Blue cells
T1 sequence (Q9NR96 26-1032): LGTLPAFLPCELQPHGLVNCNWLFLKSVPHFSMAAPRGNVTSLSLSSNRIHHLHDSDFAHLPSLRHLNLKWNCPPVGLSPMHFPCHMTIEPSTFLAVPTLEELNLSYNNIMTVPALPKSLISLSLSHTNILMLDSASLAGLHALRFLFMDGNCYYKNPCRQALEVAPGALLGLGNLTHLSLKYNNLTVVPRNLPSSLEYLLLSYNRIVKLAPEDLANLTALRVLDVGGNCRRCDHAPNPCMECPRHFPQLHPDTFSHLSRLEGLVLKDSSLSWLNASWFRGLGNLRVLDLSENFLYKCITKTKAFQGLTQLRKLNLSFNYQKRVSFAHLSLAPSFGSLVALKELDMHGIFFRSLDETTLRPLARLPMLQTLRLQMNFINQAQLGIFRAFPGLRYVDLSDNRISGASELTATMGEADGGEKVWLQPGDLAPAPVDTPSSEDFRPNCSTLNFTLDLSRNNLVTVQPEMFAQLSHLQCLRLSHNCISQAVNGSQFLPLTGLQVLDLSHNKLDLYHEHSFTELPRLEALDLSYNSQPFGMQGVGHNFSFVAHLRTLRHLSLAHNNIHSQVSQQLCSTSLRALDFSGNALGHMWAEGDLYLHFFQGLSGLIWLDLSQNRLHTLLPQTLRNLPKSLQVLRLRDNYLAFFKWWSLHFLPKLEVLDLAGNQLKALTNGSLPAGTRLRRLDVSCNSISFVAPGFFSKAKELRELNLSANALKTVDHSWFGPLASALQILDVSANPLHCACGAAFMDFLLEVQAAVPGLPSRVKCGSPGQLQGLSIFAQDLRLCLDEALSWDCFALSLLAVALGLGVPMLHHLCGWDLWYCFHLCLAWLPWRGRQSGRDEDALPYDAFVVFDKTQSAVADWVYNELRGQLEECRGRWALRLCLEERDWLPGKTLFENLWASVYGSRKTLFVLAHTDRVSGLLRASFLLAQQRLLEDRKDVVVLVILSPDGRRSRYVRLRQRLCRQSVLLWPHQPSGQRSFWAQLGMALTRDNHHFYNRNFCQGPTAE
Summary of the method: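 Human TLR7/8/9 HEK-Blue reporter lines; dose range 0.05 nM–50 μM; 30 min RT preincubation; stimulus gardiquimod 7.5 μM / R848 15.9 μM / ODN2006 5 nM respectively; 22 h, 37 °C; SEAP detected colorimetrically.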

human TLR8 = target: T2, human TLR8 (Homo sapiens, UniProt Q9NR97); experiment: TLR8 inhibition reporter assay (HEK-Blue cells, SEAP reporter, R848 stimulation); assay type: cell-based; conditions: HEK-Blue cells overexpressing human TLR8, R848 15.9 μM
T2 construct: host or cells: HEK-Blue cells
T2 sequence (Q9NR97 27-1041): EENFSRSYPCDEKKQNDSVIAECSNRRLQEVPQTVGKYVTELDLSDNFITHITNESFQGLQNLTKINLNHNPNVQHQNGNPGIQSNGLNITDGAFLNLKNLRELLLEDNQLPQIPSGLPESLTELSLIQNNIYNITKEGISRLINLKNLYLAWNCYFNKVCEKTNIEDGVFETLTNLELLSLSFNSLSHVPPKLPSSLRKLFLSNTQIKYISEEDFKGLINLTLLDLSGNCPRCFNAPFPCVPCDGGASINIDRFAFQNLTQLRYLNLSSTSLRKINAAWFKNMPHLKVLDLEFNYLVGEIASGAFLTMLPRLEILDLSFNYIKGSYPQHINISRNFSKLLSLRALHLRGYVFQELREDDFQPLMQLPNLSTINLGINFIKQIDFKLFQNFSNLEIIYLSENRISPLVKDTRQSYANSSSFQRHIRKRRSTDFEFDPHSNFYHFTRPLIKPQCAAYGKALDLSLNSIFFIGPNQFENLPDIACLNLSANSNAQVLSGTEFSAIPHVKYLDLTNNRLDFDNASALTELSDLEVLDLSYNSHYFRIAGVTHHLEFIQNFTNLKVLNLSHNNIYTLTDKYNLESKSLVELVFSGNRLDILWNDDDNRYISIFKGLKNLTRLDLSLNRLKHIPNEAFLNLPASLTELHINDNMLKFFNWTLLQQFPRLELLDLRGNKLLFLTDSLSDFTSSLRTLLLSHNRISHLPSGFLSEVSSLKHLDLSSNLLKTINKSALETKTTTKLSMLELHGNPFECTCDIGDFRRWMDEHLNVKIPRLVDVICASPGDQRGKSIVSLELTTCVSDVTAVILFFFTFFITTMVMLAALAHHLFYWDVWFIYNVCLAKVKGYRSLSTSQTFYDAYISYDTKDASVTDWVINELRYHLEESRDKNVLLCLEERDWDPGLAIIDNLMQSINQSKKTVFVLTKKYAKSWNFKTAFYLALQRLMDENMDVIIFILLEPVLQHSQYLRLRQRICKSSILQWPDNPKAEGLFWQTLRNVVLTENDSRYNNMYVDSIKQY
Summary of the method: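 Cells (15000/well for TLR7, 20,000 for TLR8) were treated with compounds over 0.05 nM-50 μM final. After 22 h at 37° C, 5% CO2, SEAP was measured with HEK-Blue Detection reagent; percent inhibition was taken as reduction of agonist-plus-DMSO signal relative to a known inhibitor.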

Row | SMILES | IC50 (human TLR9) | IC50 (human TLR8)
1 | COc1ccc(-c2[nH]c3ccc(C4CCN(C(=O)CNCCC(C)O)CC4)cc3c2C)cc1OC (stereo not shown) [Example 406, 1-(4-(2-(3,4-dimethoxyphenyl)-3-methyl-1H-indol-5-yl)piperidin-1-yl)-2-((3-hydroxybutyl)amino)ethan-1-one] | 3890 nM | 2050 nM
2 | COc1ccc(-c2[nH]c3ccc(C4CCN(C(=O)CN5CCCN(C)CC5)CC4)cc3c2C)cc1OC [Example 410, 1-(4-(2-(3,4-dimethoxyphenyl)-3-methyl-1H-indol-5-yl)piperidin-1-yl)-2-(4-methyl-1,4-diazepan-1-yl)ethan-1-one] | 5250 nM | 21100 nM
3 | COc1ccc(-c2[nH]c3ccc(C4CCN(C5CCN(C6CCC(O)CC6)CC5)CC4)cc3c2C)cc1OC (stereo not shown) [Example 84, 4-(4-(2-(3,4-dimethoxyphenyl)-3-methyl-1H-indol-5-yl)-[1,4′-bipiperidin]-1′-yl)cyclohexan-1-ol] | 192 nM | 143 nM
4 | COc1ccc(-c2[nH]c3ccc(C4CCN(C(=O)CN5CCC(N(C)C)CC5)CC4)cc3c2C)cc1OC [Example 407, 1-(4-(2-(3,4-dimethoxyphenyl)-3-methyl-1H-indol-5-yl)piperidin-1-yl)-2-(4-(dimethylamino)piperidin-1-yl)ethan-1-one] | 11500 nM | ≥ 50000 nM
5 | C#CCCCCC(=O)NCCN1CCC(c2ccc3[nH]c(-c4ccc(OC)c(OC)c4)c(C(C)C)c3c2)CC1 [Example 411, N-(2-(4-(2-(3,4-dimethoxyphenyl)-3-isopropyl-1H-indol-5-yl)piperidin-1-yl)ethyl)hept-6-ynamide] | 3890 nM | 36 nM
6 | CNCC(=O)N1CCC(c2ccc3[nH]c(-c4ccc(OC)c(OC)c4)c(CC(F)(F)F)c3c2)CC1 [Example 414, 1-(4-(2-(3,4-dimethoxyphenyl)-3-(2,2,2-trifluoroethyl)-1H-indol-5-yl)piperidin-1-yl)-2-(methylamino)ethanone] | 1170 nM | 86 nM
7 | COc1ccc(-c2[nH]c3ccc(C4CCN(C(=O)CN5CCCC(C(=O)N(C)C)C5)CC4)cc3c2CC(F)(F)F)cc1OC (stereo not shown) [Example 419, 1-(2-(4-(2-(3,4-dimethoxyphenyl)-3-(2,2,2-trifluoroethyl)-1H-indol-5-yl)piperidin-1-yl)-2-oxoethyl)-N,N-dimethylpiperidine-3-carboxamide] | 2950 nM | 47 nM
8 | COc1ccc(-c2[nH]c3ccc(C4CCN(C5CCN(Cc6nccs6)CC5)CC4)cc3c2C)cc1OC [Example 72, 2-((4-(2-(3,4-dimethoxyphenyl)-3-methyl-1H-indol-5-yl)-[1,4′-bipiperidin]-1′-yl)methyl)thiazole] | 356 nM | 312 nM
9 | COc1ccc(-c2[nH]c3ccc(C4CCN(C5CCN(CC6CCCC6)CC5)CC4)cc3c2C)cc1OC [Example 65, 5-(1′-(cyclopentylmethyl)-[1,4′-bipiperidin]-4-yl)-2-(3,4-dimethoxyphenyl)-3-methyl-1H-indole] | 112 nM | 41400 nM
10 | COc1ccc(-c2[nH]c3ccc(C4CCN(C5CCN(CC6CCOC6)CC5)CC4)cc3c2C)cc1OC (stereo not shown) [Example 74] | 62 nM | 102 nM
11 | CCN(CC)C(=O)C1CCCN(CC(=O)N2CCC(c3ccc4[nH]c(-c5ccc(OC)c(OC)c5)c(CC(F)(F)F)c4c3)CC2)C1 (stereo not shown) [Example 418, 1-(2-(4-(2-(3,4-dimethoxyphenyl)-3-(2,2,2-trifluoroethyl)-1H-indol-5-yl)piperidin-1-yl)-2-oxoethyl)-N,N-diethylpiperidine-3-carboxamide] | 1450 nM | 77 nM

Other lines, results leading:

Row | IC50 (human TLR9) | IC50 (human TLR8) | SMILES
12 | 313 nM | 352 nM | COc1ccc(-c2[nH]c3ccc(C4CCN(C5CCCN(C)CC5)CC4)cc3c2C)cc1OC (stereo not shown) [Example 91, 2-(3,4-dimethoxyphenyl)-3-methyl-5-(1-(1-methylazepan-4-yl)piperidin-4-yl)-1H-indole]
13 | 435 nM | 616 nM | COc1ccc(-c2[nH]c3ccc(C4CCN(C5CC(C)(C)NC(C)(C)C5)CC4)cc3c2C)cc1OC [Example 48, 2-(3,4-dimethoxyphenyl)-3-methyl-5-(2′,2′,6′,6′-tetramethyl-[1,4′-bipiperidin]-4-yl)-1H-indole]
14 | 301 nM | 926 nM | CCN1CCC(N2CCC(c3ccc4[nH]c(-c5ccc(OC)c(OC)c5)c(C)c4c3)CC2)CC1 [Example 44, 2-(3,4-dimethoxyphenyl)-5-(1′-ethyl-[1,4′-bipiperidin]-4-yl)-3-methyl-1H-indole]
15 | 117 nM | 216 nM | COc1ccc(-c2[nH]c3ccc(C4CCN(C5CCN(CC6CC6)CC5)CC4)cc3c2C)cc1OC [Example 3, 5-(1′-(cyclopropylmethyl)-[1,4′-bipiperidin]-4-yl)-2-(3,4-dimethoxyphenyl)-3-methyl-1H-indole]
16 | 130 nM | 143 nM | COc1ccc(-c2[nH]c3ccc(C4CCN(C5CCN(Cc6cccn6C)CC5)CC4)cc3c2C)cc1OC [Example 78, 2-(3,4-dimethoxyphenyl)-3-methyl-5-(1′-((1-methyl-1H-pyrrol-2-yl)methyl)-[1,4′-bipiperidin]-4-yl)-1H-indole]
17 | 550 nM | 260 nM | COc1ccc(-c2[nH]c3ccc(C4CCN(CC5CCCCN5C)CC4)cc3c2C)cc1OC (stereo not shown) [Example 49, 2-(3,4-dimethoxyphenyl)-3-methyl-5-(1-((1-methylpiperidin-2-yl)methyl)piperidin-4-yl)-1H-indole]
18 | 2760 nM | 926 nM | COc1ccc(-c2[nH]c3ccc(C4CCN(C(C)CO)CC4)cc3c2C)cc1OC (stereo not shown) [Example 43, 2-(4-(2-(3,4-dimethoxyphenyl)-3-methyl-1H-indol-5-yl)piperidin-1-yl)propan-1-ol]
19 | 237 nM | 302 nM | COc1ccc(-c2[nH]c3ccc(C4CCN(C5CCCN(C6CCCC6)CC5)CC4)cc3c2C)cc1OC (stereo not shown) [Example 93, 5-(1-(1-cyclopentylazepan-4-yl)piperidin-4-yl)-2-(3,4-dimethoxyphenyl)-3-methyl-1H-indole]
20 | 80 nM | 284 nM | COc1ccc(-c2[nH]c3ccc(C4CCN(C5CCN(C6CCC(C)CC6)CC5)CC4)cc3c2C)cc1OC (stereo not shown) [Example 80, 2-(3,4-dimethoxyphenyl)-3-methyl-5-(1′-(4-methylcyclohexyl)-[1,4′-bipiperidin]-4-yl)-1H-indole]
